Holding throughout (assay type): cell-based, human
The test system of experiment [1] is HeLa cell line. The experiment in a line: Extracellular vesicle morphology, EGFP-HSP90 transfected cells, confocal microscope. As to conditions: HeLa transfected with pEGFP-HSP90; solution of Example 1; 20 μM; after 10 minutes. How it is done: In order to transfect the HSP90 protein, an exosome indicator, into the HeLa cell line, the HeLa cell line was cultured overnight in a 6-well plate, and then treated with a plasmid into which Effectene and pEGFP-HSP90 were cloned, and after 4 hours, the culture was replaced.
The next day, the culture was removed from the HeLa cell line, and the solution of Example 1 was added. A control group was not treated with any peptide, and an experiment group was treated with the eMTDΔ4 peptide of SEQ ID NO: 2 (final concentration: 20 μM). The HSP90 protein was excited using an argon laser of 488 nm. After 10 minutes, the control group and the experiment group were observed using a confocal microscope (Leica TCS SP5 Microsystems), and the results are shown in FIG. 4.

The subject of experiment [2] is 293-HEK cell line. The experiment in a line: Extracellular vesicle size and quantity by Nanoparticle Tracking Analysis (NTA). To be noted: 50-fold diluted, solution of Example 1, peptide 20 μm, after 20 minutes. How it is done:
After the 293-HEK cell line was cultured to 90% confluency (about 2×10^7 cells) in a 10-cm culture dish, the culture was removed, and the cells were treated with the eMTDΔ4 peptide (final concentration: 20 μm), which has been dissolved in 5 ml of the solution of Example 1. After 20 minutes, the solution was removed, followed by centrifugation at an RCF of 12000, and then the size and quantity of extracellular vesicles were measured using a Nanoparticle Tracking Analysis (NTA) system (Nanosight LM10, Malvern Instruments).

Experiment [3] has as its system HeLa cell line. The experiment in a line: Production of extracellular vesicles, observed by optical microscope (bright field). As to conditions: solution of Example 1 (250 mM sucrose), peptide final concentration 20 μM, after 10 minutes. How it is done:
After the HeLa cell line was cultured in a 6-well plate, the culture was removed, and then the HeLa cell line was treated with the solution in Example 1.
The control group was not treated with any peptide, and the experiment group was treated with eMTDΔ4 peptide of SEQ ID NO: 2 (final concentration: 20 μM). After 10 minutes, the generation of extracellular vesicles was observed by an optical microscope (bright field), and the observation results are shown in FIG. 1.
Extracellular vesicle production was carried out by the experimental method of Experimental Example 2-1 using the R(8):MTD peptide of SEQ ID NO: 4 and the solutions of Example 1 and Comparative Examples 1 to 18, and the results are shown in FIGS. 2A to 2S.
Extracellular vesicle production was carried out by the experimental method of Example 2-1 using the R(8):MTD peptide of SEQ ID NO: 4 and the solutions of Examples 1 to 3 on Table 3, and the results are shown in FIGS. 3A to 3C.

Experiment [4] deals with HeLa cell line. Put plainly: Loading of doxorubicin in extracellular vesicles, confocal microscope. To be noted: HeLa expressing EGFP-HSP90; peptide 25 μM; doxorubicin 100 μM; solution of Example 1; after 10 minutes. As to the method: Doxorubicin, which is a drug passing through cell membranes well, is used to treat cancers, such as breast cancer, bladder cancer, Kaposi's sarcoma, lymphoma, or acute lymphoblastic leukemia. First, the HeLa cell line was cultured in a 12-well plate overnight, then transfected with a plasmid expressing EGFP-HSP90 using effectene, and then the culture was replaced after 4 hours. The next day, the culture was removed from the HeLa cell line to prepare a cell line.
The control group was treated with only doxorubicin without any peptide, and the experiment group was treated with the eMTDΔ4 peptide (final concentration: 25 μM) and doxorubicin (final concentration: 100 μM), which have been dissolved in the solution of Example 1, and then after 10 minutes, the groups were observed by a confocal microscope.

Experiment [5] concerns HeLa cell line. Put plainly: Extracellular vesicle production, mEmerald-CD9 / mCherry-CD81 transfected cells, confocal imaging every 2 seconds. To be noted: solution of Example 1, 20 μM. As to the method:
The HeLa cell line was cultured in a 12-well plate overnight, and in order to identify the CD9 protein, an extracellular vesicle indicator, the HeLa cell line was treated with a plasmid into which Effectene and mEmerald-CD9 were cloned, and after 4 hours, the culture was replaced.
The next day, the culture was removed from the HeLa cell line, and the HeLa cell line was treated with the solution of Example 1. After each HeLa cell line was treated with the eMTDΔ4 peptide (final concentration: 20 μM), a laser having a wavelength of 488 nm was used to excite mEmerald-CD9.
In order to identify the CD81 protein, an extracellular vesicle indicator, the same procedure as in the method for observing the CD9 protein was performed except that the HeLa cells were treated with a plasmid into which mCherry-CD81 instead of mEmerald-CD9 was cloned and mCherry-CD81 was excited using a laser having a wavelength of 561 nm, and the results are shown in FIG. 5B.

Experiment [6] deals with 293-HEK cell line. The experiment in a line: Extracellular vesicle output quantified by Bradford solution. How it is done:
The 293-HEK cell line was cultured in a 6-well plate at a rate of 2×10^5 cells/mL, and the next day, the cell line was treated with the solution of Example 1 and a peptide of any one of SEQ ID NOs: 1 to 21. […], the solution was removed, followed by centrifugation at an RCF of 12000, and the extracellular vesicles were quantified using the supernatant by Bradford solution.

In experiment [7] the test system is 293-HEK cell line. The experiment in a line: Loading of recombinant TRAIL protein in extracellular vesicles, SDS-acrylamide gel. To be noted: Recombinant TRAIL + (2 μg/ml), Peptide + (25 μM), solution of Example 1. How it is done: After the 293-HEK cell line was cultured to 90% confluency in a 6-well plate, the culture was removed, and the cell line was treated with the eMTDΔ4 peptide (final concentration: 25 μM) and the recombinant TRAIL, which have been dissolved to concentrations of 25 μM and 2 μg/ml in the solution of Example 1, respectively. The supernatant was collected, and PEG (final concentration: 8%) was added, followed by centrifugation at an RCF of 12000 for 10 minutes, thereby settling extracellular vesicles, and the extracellular vesicles were loaded on the SDS-acrylamide gel to check the TRAIL protein.

Experiment [8] relates to 293-HEK cell line. The experiment in a line: Loading of plasmid DNA in extracellular vesicles, agarose gel electrophoresis. To be noted: peptide 25 μM, PUC19 3 μg/ml, EGFP-C1 6 μg/ml, solution of Example 1. How it is done: After the 293-HEK cell line was cultured to 90% confluency in a 6-well plate, the culture was removed, and the cell line was treated with the eMTDΔ4 peptide (final concentration: 25 μM) and plasmid DNA (PUC19 3 μg/ml, EGFP-C1 6 μg/ml), which have been dissolved in the solution of Example 1.
1.15 ml of the supernatant was collected and 0.35 ml of Qiagen buffer P3 was added, thereby making a total volume of 1.5 ml, of which 0.75 ml was then passed through the DNA miniprep column (Qiagen), and the passed solution was purified with phenol and precipitated with ethanol.
After 30 μl of DNA bound to the column and 30 μl of DNA precipitated with ethanol were dissolved in water, 10 μl of DNA bound to the column and 10 μl of DNA precipitated with ethanol were subjected to agarose gel electrophoresis, and then stained with EtBr.

The subject of experiment [9] is HeLa cell line. Put plainly: Loading of propidium iodide (PI) in extracellular vesicles, confocal microscope. As to conditions: HeLa transfected with HSP90; peptide 25 μM; 5 μg/ml PI; solution of Example 1; after 10 minutes. As to the method: Propidium iodide (PI), which is a drug poorly passing through cell membranes, is a fluorescent substance capable of being used to stain cells. First, the HSP90 protein was transfected into the HeLa cell line to prepare a cell line.
The control group was treated with only PI without any peptide, and the experiment group was treated with the eMTDΔ4 peptide (final concentration: 25 μM) and 5 μg/ml PI, which have been in combination dissolved in the solution of Example 1, and then after 10 minutes, the groups were observed by a confocal microscope.

Regarding “KLNFRQKLLNLISKLF (eMTDdelta4) [eMTDΔ4, Noxa protein-derived peptide, 16aa]”, in the experiment with HeLa cell line [1], the cell morphology result is on record as “the cell morphology was damaged”. Besides, in the experiment with HeLa cell line [1], the “extracellular vesicles containing HSP90 protein” value was “extracellular vesicles containing the HSP90 protein were settled on the bottom of the plate”. Besides, in the experiment with 293-HEK cell line [2], the “Quantity of extracellular vesicles” value amounted to 7.44e+08 ± 6.51e+07 mL⁻¹. Also, the “generation of extracellular vesicles” value in the experiment on HeLa cell line [3] is “small extracellular vesicle particles were formed and settled on the bottom of the plate”. Besides, the “loading of doxorubicin in extracellular vesicles” value in the experiment on HeLa cell line [4] is listed as “the generated extracellular vesicles contained doxorubicin as well as the HSP90 protein”. Further, the “time to release of extracellular vesicles to the extracellular matrix” value with HeLa cell line [5] was “within a few seconds after generation”. For the same sequence, in the experiment on HeLa cell line [5] (observed for 10 minutes), the “release of CD9 and CD81 proteins (extracellular vesicle indicators)” value was “CD9 and CD81 proteins were released into the extracellular matrix”. In addition, the “Amount of proteins contained in extracellular vesicles” value with 293-HEK cell line [6] (solution of Example 1, peptide 10 μM) is 4.93 µg/µL; with 293-HEK cell line [6] (solution of Example 1, peptide 20 μM) it was 6.40 µg/µL; in the experiment on 293-HEK cell line [6] (solution of Example 1, peptide 40 μM), 7.56 µg/µL. For the same sequence, the “Protein detected or not (TRAIL in extracellular vesicles)” value with 293-HEK cell line [7] is reported as “◯”. Moreover, in the experiment with 293-HEK cell line [8], the “loading of plasmid DNA in extracellular vesicles” value is “can be loaded in the extracellular vesicles”. Moreover, the “loading of propidium iodide (PI) in extracellular vesicles” value in the experiment with HeLa cell line [9] is reported as “the generated extracellular vesicles contained PI as well as the HSP90 protein”.
